Marks after values point to notes of the source that are not given here.

The data set can be described thus: Plasma pharmacokinetics (HPLC-MS/MS) in open-label drug–drug interaction trial. The settings on record: male, human, in vivo, po. As for the experimental part: The treatment phase was divided into three separate parts, each with a different set of subjects. Part 1 (pilot study) was an open-label, multiple-dose (for dabigatran etexilate) and single-dose (for clopidogrel), fixed-sequence study. A single dose of clopidogrel 300 mg was given in addition to dabigatran etexilate 150 mg bid in steady state (Table 1). Part 2 (main study) was a randomized, open-label, multiple-dose, crossover study, with three periods of up to 5 days separated by washout periods of at least 14 days. The test treatment consisted of a clopidogrel 300 mg loading dose on day 1, followed by a 75 mg dose on day 2, then clopidogrel 75 mg qd in combination with dabigatran etexilate 150 mg bid on days 3–5 (Table 1). Part 3 (main study) was an open-label, multiple-dose (for dabigatran etexilate) and single-dose (for clopidogrel), fixed-sequence study. A single dose of clopidogrel 600 mg was given alone or in addition to dabigatran 150 mg bid at steady state (Table 1).
Although there are no reported interactions of food with dabigatran etexilate or clopidogrel, the morning medication was administered with about 240 mL of water following an overnight fast of at least 10 h, and no food was allowed until 4 h after drug administration. According to the twice-daily regimen dabigatran etexilate was similarly administered again 12 h later. Subjects were not allowed to lie down during the 2 h following drug administration, and water was limited for 1 h before and after drug administration. On dosing days a light non-standardized breakfast was given 1 h after morning drug administration. On profile days, no food was given until 4 h after administration. No concomitant therapy was allowed during the study, except for prophylactic thyroid hormone replacement and for symptomatic therapy of adverse events (AEs) in need of treatment.
For PK parameter evaluations, blood samples were taken for the determination of plasma concentrations of free, nonconjugated dabigatran, total dabigatran (after alkaline cleavage of conjugates), and the prodrug dabigatran etexilate, and of clopidogrel and SR26334.
Blood samples were taken before and at specified intervals up to 24 h after the morning clopidogrel dose, and before and up to 24 h after the morning and evening dabigatran etexilate dose. Timings of PK/PD sampling are shown in Supplementary Table 1.
Blood samples (∼2.7 mL for dabigatran and ∼4.0 mL for clopidogrel) were collected into tubes containing potassium ethylenediaminetetraacetic acid for PK analysis. Samples were centrifuged, and the resulting plasma samples were separated and stored at −70°C or below.
Plasma concentrations of free, nonconjugated dabigatran; total dabigatran (sum of free and conjugated dabigatran measured after alkaline cleavage of conjugates); the prodrug dabigatran etexilate; clopidogrel; and SR26334 were determined by validated high-performance liquid chromatography tandem mass spectrometry (HPLC-MS/MS) at AAI Pharma Deutschland (Neu-Ulm, Germany). The calibration curves for free and total dabigatran covered a range from 1.00 to 400 ng/mL plasma in undiluted samples. […] Maximum imprecision and inaccuracy for quality control samples at concentrations of 3, 30, and 320 ng/mL were 6.62 and +5.86%, respectively. For the prodrug, maximum imprecision and inaccuracy were 6.63 and +2.83%, respectively.
Calibration curves for clopidogrel and SR26334 covered concentration ranges of 0.01–10 ng/mL and 0.02–20 μg/mL, respectively, with an inaccuracy generally below 4% and imprecision below 9%. For blood coagulation parameters aPTT, ECT, and TT (PD analyses), ∼3 mL of blood were collected in sodium citrate monovettes at the time points indicated for PK analyses. The blood samples were centrifuged, frozen, and stored at −20°C or below.

Turning to `COC(=O)[C@H](c1ccccc1Cl)N1CCc2sccc2C1` [Clopidogrel, clopidogrel], for the setting “75 mg”, the “AUCτ,ss, gMean” value was 1400^b pg·h/mL and the “Cmax,ss, gMean” value was determined as 0.625 ng/mL. Besides, under “600 mg”, the “AUC0-24, gMean” value amounted to 10.574 ng·h/mL; the “CL/Fss, gMean” value amounted to 911000 mL/min; the “Cmax, gMean” value was found to be 4.013 ng/mL.

Values taken from publication PMC3572379, “Pharmacokinetic and pharmacodynamic effects of comedication of clopidogrel and dabigatran etexilate in healthy male volunteers” (European Journal of Clinical Pharmacology, 2012).
